Measurements taken from patent US20130029970A1 (priority 2009, published 2013).

Experiments:
human CB1 receptors = target: T1, human CB1 receptors (Homo sapiens, UniProt P21554); assay: cAMP assay in HEK-293 cells, hCB1 agonist; format: cell-based; conditions: inhibition of forskolin-stimulated cAMP, HEK-293 cells; for EC50: read-out: hCB1 EC50 (cAMP ag)
T1 construct: (cDNA clone) CNR01L000
Outline: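 Agonist EC50 taken as concentration giving half inhibition of forskolin-driven cAMP, normalized to forskolin maximum, from sigmoidal curves. Whole HEK-293 cells stably expressing hCB1, in HEPES/BSA-containing HBSS, exposed 30 min at 37° C. to compound with forskolin (90 uM in 3× dilution); cAMP read after lysis.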

[1] = target: T2, recombinant human cannabinoid receptor CB1 (Homo sapiens, UniProt P21554); assay: Cannabinoid receptor radioligand binding assay, [3H]-CP 55,940 displacement, hCB1
T2 construct: (cDNA clone) CNR01L000
T2 sequence (P21554 whole entry): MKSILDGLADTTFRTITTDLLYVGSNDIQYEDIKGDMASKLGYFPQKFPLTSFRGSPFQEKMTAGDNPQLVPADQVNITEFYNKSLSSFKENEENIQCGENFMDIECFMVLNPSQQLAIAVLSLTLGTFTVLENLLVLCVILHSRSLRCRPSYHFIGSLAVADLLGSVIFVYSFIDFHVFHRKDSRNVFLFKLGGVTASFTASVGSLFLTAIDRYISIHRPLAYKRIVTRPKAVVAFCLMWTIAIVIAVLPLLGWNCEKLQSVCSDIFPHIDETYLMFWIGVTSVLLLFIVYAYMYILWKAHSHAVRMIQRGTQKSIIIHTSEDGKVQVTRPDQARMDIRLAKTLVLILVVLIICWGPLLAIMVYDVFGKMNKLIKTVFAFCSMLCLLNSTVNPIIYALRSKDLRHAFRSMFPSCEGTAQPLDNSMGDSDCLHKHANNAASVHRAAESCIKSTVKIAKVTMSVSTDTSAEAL
Outline: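 Displacement of 0.5 nM [3H]-CP 55,940 (1 μM unlabeled CP 55,940 for nonspecific) measured by filtration and scintillation counting. Binding ran 90 min at room temperature in pH 7.5 Tris buffer with 0.1% fatty-acid-free BSA, using recombinant hCB1 HEK-293 membranes at 2-10 μg protein.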

T1 sequence (P21554 whole entry): as above

SMILES | EC50 (human CB1 receptors) | IC50 [1] | hCB1 EC50 (cAMP ag, nM) (human CB1 receptors)
COc1ccc(C(=O)c2cc3cc(C)n(CCN4CCOCC4)c3s2)c(OC)c1 [Compound 120, (2,4-Dimethoxyphenyl)(5-methyl-6-(2-morpholinoethyl)-6H-thieno[2,3-b]pyrrol-2-yl)methanone] | 100 to 1000 nM | 100 to 1000 nM | 
COc1ccc(C(=O)c2cc3cc(C)n(CCN4CCCCC4)c3s2)cc1 [Compound 78, (4-Methoxyphenyl)(5-methyl-6-(2-(piperidin-1-yl)ethyl)-6H-thieno[2,3-b]pyrrol-2-yl)methanone] | 1000 to 10000 nM | 1000 to 10000 nM | 
COc1ccc(C(=O)c2cc3cc(C)n(S(=O)(=O)N4CCOCC4)c3s2)cc1 [Compound 53, (4-methoxyphenyl)(5-methyl-6-(morpholinosulfonyl)-6H-thieno[2,3-b]pyrrol-2-yl)methanone] | < 100 nM | < 100 nM | 
Cc1ccccc1C(=O)c1cc2cc(C)n(CCN3CCOCC3)c2s1 [Compound 12, (5-Methyl-6-(2-morpholinoethyl)-6H-thieno[2,3-b]pyrrol-2-yl)(o-tolyl)methanone] | 100 to 1000 nM | 1000 to 10000 nM | 
COc1ccc(C(=O)c2cc3cc(C)n(S(=O)(=O)CCN4CCOCC4)c3s2)cc1 [Compound 139, (4-methoxyphenyl)(5-methyl-6-(2-morpholinoethylsulfonyl)-6H-thieno[2,3-b]pyrrol-2-yl)methanone] | 100 to 1000 nM | 100 to 1000 nM | 
CCS(=O)(=O)n1c(C)cc2cc(C(=O)c3ccc(OC)cc3)sc21 [Compound 56, (6-(Ethylsulfonyl)-5-methyl-6H-thieno[2,3-b]pyrrol-2-yl)(4-methoxyphenyl)methanone] |  | > 10000 nM | NS (NS means “Not Significant,” which means less than 30% agonist activity when compared to the positive control.)
Cc1cc2cc(C(=O)c3cccc(Cl)c3Cl)sc2n1CCN1CCN(C)CC1 [Compound 33, (2,3-Dichlorophenyl)(5-methyl-6-(2-(4-methylpiperazin-1-yl)ethyl)-6H-thieno[2,3-b]pyrrol-2-yl)methanone] |  | > 10000 nM | NS (NS means “Not Significant,” which means less than 30% agonist activity when compared to the positive control.)
Cc1cc2cc(C(=O)c3cccc(Cl)c3Cl)sc2n1CCc1ccccc1 [Compound 30, (2,3-Dichlorophenyl)(5-methyl-6-phenethyl-6H-thieno[2,3-b]pyrrol-2-yl)methanone] |  | 100 to 1000 nM | NS (NS means “Not Significant,” which means less than 30% agonist activity when compared to the positive control.)
COc1ccc(C(=O)c2cc3cc(C)n(CCN4CCOCC4)c3s2)c(C(F)(F)F)c1 [Compound 119, (4-Methoxy-2-(trifluoromethyl)phenyl)(5-methyl-6-(2-morpholinoethyl)-6H-thieno[2,3-b]pyrrol-2-yl)methanone] | 100 to 1000 nM | 1000 to 10000 nM | 
Cc1cc2cc(C(=O)c3ccc(C(F)(F)F)cc3)sc2n1CCN1CCOCC1 [Compound 60, (5-Methyl-6-(2-morpholinoethyl)-6H-thieno[2,3-b]pyrrol-2-yl)(4-(trifluoromethyl)phenyl)methanone] |  | > 10000 nM | NS (NS means “Not Significant,” which means less than 30% agonist activity when compared to the positive control.)
COc1ccc(C(=O)c2cc3cc(C)n(CCCNS(C)(=O)=O)c3s2)c(F)c1 [Compound 87, N-(3-(2-(2-Fluoro-4-methoxybenzoyl)-5-methyl-6H-thieno[2,3-b]pyrrol-6-yl)propyl)methanesulfonamide] |  | > 10000 nM | NS (NS means “Not Significant,” which means less than 30% agonist activity when compared to the positive control.)
Cc1cc2cc(C(=O)c3ccc(Cl)cc3Cl)sc2n1CCN1CCOCC1 [Compound 10, (2,4-Dichlorophenyl)(5-methyl-6-(2-morpholinoethyl)-6H-thieno[2,3-b]pyrrol-2-yl)methanone] | 100 to 1000 nM | 100 to 1000 nM | 
COc1ccc(C(O)(c2cc3cc(C)n(CCN4CCOCC4)c3s2)C(F)(F)F)cc1 (stereo not shown) [Compound 138, 2,2,2-trifluoro-1-(4-methoxyphenyl)-1-(5-methyl-6-(2-morpholinoethyl)-6H-thieno[2,3-b]pyrrol-2-yl)ethanol] |  | 1000 to 10000 nM | NS (NS means “Not Significant,” which means less than 30% agonist activity when compared to the positive control.)
COc1ccc(C(=O)c2cc3cc(C)n(CCN4CCOCC4)c3s2)c(Cl)c1 [Compound 70, (2-Chloro-4-methoxyphenyl)(5-methyl-6-(2-morpholinoethyl)-6H-thieno[2,3-b]pyrrol-2-yl)methanone] | 100 to 1000 nM | 100 to 1000 nM | 
Cc1cc2cc(C(=O)c3cccc(Cl)c3Cl)sc2n1CCCNS(C)(=O)=O [Compound 37, N-(3-(2-(2,3-Dichlorobenzoyl)-5-methyl-6H-thieno[2,3-b]pyrrol-6-yl)propyl)methanesulfonamide] |  | > 10000 nM | NS (NS means “Not Significant,” which means less than 30% agonist activity when compared to the positive control.)
Cc1ccc(C(=N)c2cc3cc(C)n(CCN4CCOCC4)c3s2)cc1 [Compound 121, (5-methyl-6-(2-morpholinoethyl)-6H-thieno[2,3-b]pyrrol-2-yl)(p-tolyl)methanimine] |  | 1000 to 10000 nM | NS (NS means “Not Significant,” which means less than 30% agonist activity when compared to the positive control.)
COc1ccc(C(=O)c2cc3cc(C)n(CCN4CCOCC4)c3s2)c(C)n1 [Compound 136, (6-methoxy-2-methylpyridin-3-yl)(5-methyl-6-(2-morpholinoethyl)-6H-thieno[2,3-b]pyrrol-2-yl)methanone] |  | 1000 to 10000 nM | NS (NS means “Not Significant,” which means less than 30% agonist activity when compared to the positive control.)
COc1ccc(C(=O)c2cc3cc(C)n(CC4CCOCC4)c3s2)cc1 [Compound 62, (4-Methoxyphenyl)(5-methyl-6-((tetrahydro-2H-pyran-4-yl)methyl)-6H-thieno[2,3-b]pyrrol-2-yl)methanone] | 100 to 1000 nM | 1000 to 10000 nM | 
COc1ccc(C(=O)c2cc3cc(C)n(CCN4CCOCC4)c3s2)cn1 [Compound 58, (6-Methoxypyridin-3-yl)(5-methyl-6-(2-morpholinoethyl)-6H-thieno[2,3-b]pyrrol-2-yl)methanone] |  | > 10000 nM | NS (NS means “Not Significant,” which means less than 30% agonist activity when compared to the positive control.)
CCn1c(C)cc2cc(C(=O)c3cccc(Cl)c3Cl)sc21 [Compound 19, (2,3-Dichlorophenyl)(6-ethyl-5-methyl-6H-thieno[2,3-b]pyrrol-2-yl)methanone] |  | > 10000 nM | NS (NS means “Not Significant,” which means less than 30% agonist activity when compared to the positive control.)
CCS(=O)(=O)n1c(C)cc2cc(C(=O)c3cccnc3Cl)sc21 [Compound 43, (2-Chloropyridin-3-yl)(6-(ethylsulfonyl)-5-methyl-6H-thieno[2,3-b]pyrrol-2-yl)methanone] |  | > 10000 nM | NS (NS means “Not Significant,” which means less than 30% agonist activity when compared to the positive control.)
COc1ccc(C(=O)c2cc3cc(C)n(CCCCl)c3s2)c(Cl)c1 [Compound 85, (2-Chloro-4-methoxyphenyl)(6-(3-chloropropyl)-5-methyl-6H-thieno[2,3-b]pyrrol-2-yl)methanone] | 1000 to 10000 nM | 1000 to 10000 nM | 
Cc1cc2cc(C(=O)c3ccc(F)cc3F)sc2n1CCN1CCOCC1 [Compound 135, (2,4-difluorophenyl)(5-methyl-6-(2-morpholinoethyl)-6H-thieno[2,3-b]pyrrol-2-yl)methanone] |  | 1000 to 10000 nM | NS (NS means “Not Significant,” which means less than 30% agonist activity when compared to the positive control.)
